Series [1] is classed as in vivo, Sprague-Dawley rats. The note with it: male Sprague-Dawley rats, oral NHC 10 mg/kg. The protocol:
β-d-N^4-hydroxycytidine (NHC) was dosed orally by gavage to male Sprague-Dawley rats (n=3) at 10 mg/kg in 3.9% citric acid and 96.1% water, pH 2.8; Molnupiravir at 12.7 mg/kg in 2.5% kolliphor RH 40, 10% polyethylene glycol 300 and 87.5% water, pH 5.3. […]

Series [2] in a line: in vitro. The note with it: 2 μM substrate, 1.0 mg/mL protein, pH 7.4. In kind it is in vitro ADME, Human. The protocol:
Duplicate aliquots of test compound or positive control substrate (GS-7340) were added to S9 stock diluted with 100 mM phosphate buffered saline, pH 7.4, to obtain a protein concentration of 1.0 mg/mL. The S9 metabolic reactions were initiated by the addition of the substrates to the S9 reaction mixture to a final concentration of 2 μM. At 0, 10, 20, 30, 60 and 120 min, 25 μL aliquots of the reaction mixture were transferred to plates containing 225 μl of IS/Q solution. After quenching, the plates were centrifuged at 3000×g for 30 minutes, and 150 μL aliquots of each supernatant were diluted with 150 μL water. Aliquots (10 μL) of the diluted supernatant were analyzed on a Thermo Q-Exactive mass spectrometer as described below.
Quantification of test compounds and controls was performed by analyte/internal standard peak area ratio (PAR) values measured on a Thermo Q-Exactive mass spectrometer coupled to a Dionex UltiMate 3000 HPLC with a Leap Technologies HTC PAL autosampler. The column used was a Thermo Hypersil GOLD (1.9 μm particle size, 2.1×50 mm). Mobile phase A consisted of 0.1% (v/v) formic acid in water. Mobile phase B consisted of 0.1% (v/v) formic acid in acetonitrile. Elution of analytes was achieved by a series of linear gradients of acetonitrile in water containing 0.1% (v/v) formic acid. The mass spectrometer was calibrated on a weekly basis and mass tolerance of 5 ppm was used.

Series [3] in a line: in vitro. The note with it: human, PrestoBlue.
The nature of series [4]: in vitro. To be noted: hamster.
Another series concerns SARS-CoV-2-Nluc viruses. The series can be described thus: microbe, parasite or virus in culture. Type of series: cell-based.
A short description of series [5]: in vitro. The note with it: African green monkey.
A short description of series [6]: in vitro. Type of series: cell-based. The note with it: human. Here is the method: The cytotoxicity of compounds was determined in A549-hACE2 cells in the following manner. Compounds (200 nL) were spotted onto 384-well Grenier plates prior to seeding 5000 A549-hACE2 cells/well in a volume of 40 μL culture medium. The plates were incubated at 37° C. for 48 hours with 5% CO2. On day 2, 40 μL of CellTiter-Glo (Promega) was added and mixed 5 times.

The next series concerns RSV strain A2. The series can be described thus: RSV antiviral assay (Hep2), EC50-Hep2/B1-384. In kind it is cell-based. The note with it: human respiratory syncytial virus, HEp-2, 96 h; Hep2 cells, 4 days, Cell-Titer Glo.
Series [7] concerns RSV-Fluc (Respiratory Syncytial virus strain A2 containing the firefly luciferase reporter). The experiment in a line: microbe, parasite or virus in culture. Type of series: cell-based. The note with it: human respiratory syncytial virus, 72 h, NHBE cells, three days.
The mark [8] stands for this setting: Severe acute respiratory syndrome coronavirus 2, 48 h, read-out: SARS-CoV2 EC50.

Like-named read-outs stand apart in the source and are kept apart here.

What is called Cmax is the peak of the concentration-time curve. On to `O=c1nc(NO)ccn1[C@@H]1O[C@H](CO)[C@@H](O)[C@H]1O` [NHC, β-d-N^4-hydroxycytidine], for which, in series [1] (plasma), the “NHC AUCinf.” value came out at 8.48 µM·h. Besides, the Cmax in series [1] (plasma, read-out: NHC Cmax) was found to be 3.13 µM. Moreover, the “NHC F % (based on NHC mg-eq dose)” value in [1] amounted to 37.0%. The “Human GI S9 T1/2” value in “in vitro [2]” is above 11.7 h.

On to `CCC(CC)COC(=O)[C@H](C)N[P@](=O)(OC[C@H]1O[C@@](C#N)(c2ccc3c(N)ncnn23)[C@H](O)[C@@H]1O)Oc1ccccc1` [Remdesivir], for which the CC50 in the series “in vitro [3]” (CC50, DF2 HAE, primary diseased (asthma) HAE donor DF2, 72 hours) is above 33000 nM; in “in vitro [3]” (CC50, M2 HAE, primary HAE donor M2, 72 hours), 102000 nM; in the series “in vitro [3]” (CC50, M6 HAE, primary HAE donor M6, 72 hours), above 100000 nM; in “in vitro [4]”, above 100000 nM; in the series “in vitro [5]”, above 100000 nM; in the series “in vitro [6]” (host cells A549-ACE2, read-out: CC50, A549-ACE2), above 16700 nM. Further, in the series with SARS-CoV-2-Nluc viruses (Severe acute respiratory syndrome coronavirus 2, host cells A549-ACE2, read-out: EC50, WA1/2020-nano luciferase), the EC50 was 67 nM.

As for `N#C[C@@]1(c2ccc3c(N)ncnn23)O[C@H](COC(=O)C2CCCCCC2)[C@@H](O)[C@H]1O` [Compound 29, ((2R,3S,4R,5R)-5-(4-aminopyrrolo[2,1-f][1,2,4]triazin-7-yl)-5-cyano-3,4-dihydroxytetrahydrofuran-2-yl)methyl cycloheptanecarboxylate], the EC50 was found to be 300 nM in the series with SARS-CoV-2-Nluc viruses (setting [8]), 194 nM in the series on RSV strain A2 and 2640 nM in series [7]. In addition, in the series “in vitro [6]”, the CC50 at 48 h is 38000 nM.

Turning to `CC(C)C(=O)O[C@H]1[C@@H](OC(=O)C(C)C)[C@](C#N)(c2ccc3c(N)ncnn23)O[C@@H]1COC(=O)C(C)(C)N` [Compound 11, (2R,3R,4R,5R)-5-(((2-amino-2-methylpropanoyl)oxy)methyl)-2-(4-aminopyrrolo[2,1-f][1,2,4]triazin-7-yl)-2-cyanotetrahydrofuran-3,4-diyl bis(2-methylpropanoate)], the EC50 turned out to be 2600 nM in the series on SARS-CoV-2-Nluc viruses (setting [8]), 387 nM with RSV strain A2 and 301 nM in series [7]. Besides, in the series “in vitro [6]”, the CC50 at 48 h is above 100000 nM.

As to `CC(C)(C)CC(=O)OC[C@H]1O[C@@](C#N)(c2ccc3c(N)ncnn23)[C@H](O)[C@@H]1O` [Compound 21, ((2R,3S,4R,5R)-5-(4-aminopyrrolo[2,1-f][1,2,4]triazin-7-yl)-5-cyano-3,4-dihydroxytetrahydrofuran-2-yl)methyl 3,3-dimethylbutanoate], the EC50 was 11400 nM in the series on SARS-CoV-2-Nluc viruses (setting [8]), 2280 nM with RSV strain A2 and 1850 nM in [7]. This compound also came in with a CC50 at 48 h in the series “in vitro [6]” above 10000 nM.

Take `N#C[C@@]1(c2ccc3c(N)ncnn23)O[C@H](COC(=O)C2CCC2)[C@@H](O)[C@H]1O` [Compound 26, ((2R,3S,4R,5R)-5-(4-aminopyrrolo[2,1-f][1,2,4]triazin-7-yl)-5-cyano-3,4-dihydroxytetrahydrofuran-2-yl)methyl cyclobutanecarboxylate]: the values for the EC50 (in the series on SARS-CoV-2-Nluc viruses (setting [8]); in the series with RSV strain A2; in series [7]) were 1190 nM, 337 nM and 1080 nM, respectively. This compound gave a CC50 at 48 h in the series “in vitro [6]” above 10000 nM.

Consider `N#C[C@@]1(c2ccc3c(N)ncnn23)O[C@H](COC(=O)C2CC3(CCC3)C2)[C@@H](O)[C@H]1O` [Compound 27, ((2R,3S,4R,5R)-5-(4-aminopyrrolo[2,1-f][1,2,4]triazin-7-yl)-5-cyano-3,4-dihydroxytetrahydrofuran-2-yl)methyl spiro[3.3]heptane-2-carboxylate], for which the EC50 in the series with SARS-CoV-2-Nluc viruses (setting [8]) is 560 nM; in the series with RSV strain A2 it was 243 nM; in series [7], 1490 nM. The compound also gave a CC50 at 48 h in “in vitro [6]” above 10000 nM.

As to `CCC(CC)C(=O)OC[C@H]1O[C@@](C#N)(c2ccc3c(N)ncnn23)[C@H](O)[C@@H]1O` [Compound 19, ((2R,3S,4R,5R)-5-(4-aminopyrrolo[2,1-f][1,2,4]triazin-7-yl)-5-cyano-3,4-dihydroxytetrahydrofuran-2-yl)methyl 2-ethylbutanoate], the figures for the EC50 (with SARS-CoV-2-Nluc viruses (setting [8]); with RSV strain A2; in [7]) were 1450 nM, 238 nM and 261 nM, respectively. The CC50 at 48 h in “in vitro [6]” was above 10000 nM.

Consider `CCC(=O)OC[C@H]1O[C@@](C#N)(c2ccc3c(N)ncnn23)[C@H](OC(=O)CC)[C@@H]1OC(=O)CC` [Compound 3, (2R,3R,4R,5R)-2-(4-aminopyrrolo[2,1-f][1,2,4]triazin-7-yl)-2-cyano-5-((propionyloxy)methyl)tetrahydrofuran-3,4-diyl dipropionate], for which the EC50 in the series with SARS-CoV-2-Nluc viruses (setting [8]) was 3100 nM; in the series with RSV strain A2 it was 425 nM; in [7], 831 nM. This compound also displayed a CC50 at 48 h in the series “in vitro [6]” above 100000 nM.

`N#C[C@@]1(c2ccc3c(N)ncnn23)O[C@H](COC(=O)C2CCCCC2)[C@@H](O)[C@H]1O` [Compound 17, ((2R,3S,4R,5R)-5-(4-aminopyrrolo[2,1-f][1,2,4]triazin-7-yl)-5-cyano-3,4-dihydroxytetrahydrofuran-2-yl)methyl cyclohexanecarboxylate]: the EC50 stood at 790 nM with SARS-CoV-2-Nluc viruses (setting [8]), 213 nM in the series with RSV strain A2 and 1180 nM in [7]. In addition, in “in vitro [6]”, the CC50 at 48 h is above 10000 nM.

Turning to `CCCCCC(=O)OC[C@H]1O[C@@](C#N)(c2ccc3c(N)ncnn23)[C@H](O)[C@@H]1O` [Compound 31, ((2R,3S,4R,5R)-5-(4-aminopyrrolo[2,1-f][1,2,4]triazin-7-yl)-5-cyano-3,4-dihydroxytetrahydrofuran-2-yl)methyl hexanoate], the EC50 with SARS-CoV-2-Nluc viruses (setting [8]) worked out at 320 nM; in the series on RSV strain A2 it was 198 nM; in series [7], 2740 nM. In addition, the CC50 at 48 h in the series “in vitro [6]” worked out at 24000 nM.

For the compound `N#C[C@@]1(c2ccc3c(N)ncnn23)O[C@H](COC(=O)C2CC3CCCC3C2)[C@@H](O)[C@H]1O` (stereo partly drawn) [Compound 24, ((2R,3S,4R,5R)-5-(4-aminopyrrolo[2,1-f][1,2,4]triazin-7-yl)-5-cyano-3,4-dihydroxytetrahydrofuran-2-yl)methyl octahydropentalene-2-carboxylate], the EC50 with SARS-CoV-2-Nluc viruses (setting [8]) worked out at 800 nM; in the series with RSV strain A2 it was 185 nM; in [7], 801 nM. The compound further came in with a CC50 at 48 h in “in vitro [6]” above 10000 nM.
